A short description of the data set: mn = molality of the nth substance listed, in mol/kg. The settings on record: 101 kPa, Liquid, m2 = 0.

± gives the expanded uncertainty stated by the source.

What is called viscosity is the resistance of a fluid to flow. As for `O` [water] + O=C(O)CCCCC(=O)O, the viscosity reads like this: (293.15 K) 1.002 ± 0.013 mPa·s; (298.15 K) 0.8904 ± 0.011 mPa·s; (303.15 K) 0.7975 ± 0.01 mPa·s; (308.15 K) 0.7194 ± 0.0095 mPa·s; (313.15 K) 0.653 ± 0.0088 mPa·s.

The values above are taken from the NIST ThermoML archive (doi:10.1021/je060189f).
